Data from paper PMC10714399, “Open Source Antibiotics: Simple Diarylimidazoles Are Potent against Methicillin-Resistant Staphylococcus aureus” (ACS Infectious Diseases, 2023).

Assay: LogD7.4 (Chrom Log D)
Type: physicochemical
Conditions: chromatographic system (Chrom Log D); pH 7.4, NEU; read-out: LogD 7.4 (NEU)

- chromatographic logD: 2.7
SMILES: c1ccc(-c2nc3n(c2-c2ccc4occc4c2)CCC3)nc1 [compound 821]
